Laboratory results from PubChem BioAssay (NCI).
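Results reflect a 48-hour exposure of cells in 96-well plates to compound at five concentrations. GI50 = concentration required for 50% inhibition of growth. TGI: total growth inhibition.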

Assays:
Test in all cases: NCI-60 cell line screen, 48 h
[1] = system: M14 melanoma
[2] = system: UO-31 renal
[3] = system: OVCAR-5 ovarian
[4] = system: CAKI-1 renal
[5] = system: TK-10 renal
[6] = system: UACC-62 melanoma
[7] = system: NCI/ADR-RES ovarian
[8] = system: SNB-19 CNS
[9] = system: HT29 colon
[10] = system: SN12C renal
[11] = system: HOP-92 NSCLC
[12] = system: SK-MEL-2 melanoma
[13] = system: DU-145 prostate
[14] = system: SNB-75 CNS
[15] = system: RPMI-8226 leukemia
[16] = system: IGROV1 ovarian
[17] = system: NCI-H23 lung
[18] = system: OVCAR-4 ovarian
[19] = system: HS 578T breast
[20] = system: MCF7 breast
[21] = system: SK-MEL-28 melanoma
[22] = system: SW-620 colon
[23] = system: HCC-2998 colon
[24] = system: SF-268 CNS
[25] = system: NCI-H226 lung
[26] = system: K-562 leukemia
[27] = system: SF-539 CNS
[28] = system: PC-3 prostate
[29] = system: ACHN renal
[30] = system: A549 NSCLC
[31] = system: CCRF-CEM leukemia
[32] = system: MDA-MB-435
[33] = system: LOX IMVI melanoma
[34] = system: A498 renal
[35] = system: HCT-116 colon
[36] = system: OVCAR-8 ovarian
[37] = system: UACC-257 melanoma
[38] = system: MDA-MB-231 breast
[39] = system: OVCAR-3 ovarian
[40] = system: T-47D breast
[41] = system: 786-0 renal
[42] = system: BT-549 breast
[43] = system: KM12 colon
[44] = system: MALME-3M melanoma
[45] = system: SK-MEL-5 melanoma
[46] = system: U251 CNS
[47] = system: SR leukemia
[48] = system: RXF 393 renal
[49] = system: SF-295 CNS
[50] = system: HL-60(TB) leukemia
[51] = system: NCI-H522 lung
[52] = system: MOLT-4 leukemia
[53] = system: SK-OV-3 ovarian
[54] = system: EKVX NSCLC
[55] = system: HCT-15 colon
[56] = system: COLO 205 colon
[57] = system: NCI-H460 lung
[58] = system: HOP-62 NSCLC

O=C(c1ccco1)c1nc2cc(F)ccc2[n+]([O-])c1C(F)(F)F
GI50 [1]: 17.6 µM | TGI [1]: 38.7 µM | GI50 [2]: 28.1 µM | TGI [2]: > 100 µM | GI50 [3]: 26.7 µM | TGI [3]: 90.6 µM | GI50 [4]: 15.8 µM | TGI [4]: 30.8 µM | GI50 [5]: 85.3 µM | TGI [5]: > 100 µM | GI50 [6]: 24.8 µM | TGI [6]: 68.2 µM | GI50 [7]: 21.5 µM | TGI [7]: 66.5 µM | GI50 [8]: 47.4 µM | TGI [8]: > 100 µM | GI50 [9]: 24 µM | TGI [9]: 79 µM | GI50 [10]: 44.4 µM | TGI [10]: > 100 µM | GI50 [11]: 22.6 µM | TGI [11]: 58.7 µM | GI50 [12]: 20.8 µM | TGI [12]: 50.3 µM | GI50 [13]: 38.8 µM | TGI [13]: > 100 µM | GI50 [14]: 24.5 µM | TGI [14]: 86.6 µM | GI50 [15]: 35.8 µM | TGI [15]: > 100 µM | GI50 [16]: 17.9 µM | TGI [16]: 36.7 µM | GI50 [17]: 19.1 µM | TGI [17]: 42.7 µM | GI50 [18]: 21.5 µM | TGI [18]: 50.5 µM | GI50 [19]: 97.4 µM | TGI [19]: > 100 µM | GI50 [20]: 56.2 µM | TGI [20]: > 100 µM | GI50 [21]: 29.4 µM | TGI [21]: 95.4 µM | GI50 [22]: > 100 µM | TGI [22]: > 100 µM | GI50 [23]: 17 µM | TGI [23]: 32 µM | GI50 [24]: 39.2 µM | TGI [24]: > 100 µM | GI50 [25]: 99.1 µM | TGI [25]: > 100 µM | GI50 [26]: 9.59 µM | TGI [26]: 47.9 µM | GI50 [27]: > 100 µM | TGI [27]: > 100 µM | GI50 [28]: 35.3 µM | TGI [28]: > 100 µM | GI50 [29]: 27.6 µM | TGI [29]: > 100 µM | GI50 [30]: 34.6 µM | TGI [30]: > 100 µM | GI50 [31]: 29.9 µM | TGI [31]: > 100 µM | GI50 [32]: 19.2 µM | TGI [32]: 44 µM | GI50 [33]: 19.4 µM | TGI [33]: 39.2 µM | GI50 [34]: 86.6 µM | TGI [34]: > 100 µM | GI50 [35]: 34 µM | TGI [35]: > 100 µM | GI50 [36]: 22.5 µM | TGI [36]: 62 µM | GI50 [37]: 22.5 µM | TGI [37]: 67.3 µM | GI50 [38]: 22.6 µM | TGI [38]: 60.5 µM | GI50 [39]: 20.8 µM | TGI [39]: 46.7 µM | GI50 [40]: 30.6 µM | TGI [40]: > 100 µM | GI50 [41]: 53.2 µM | TGI [41]: > 100 µM | GI50 [42]: 22.2 µM | TGI [42]: 51.6 µM | GI50 [43]: 57 µM | TGI [43]: > 100 µM | GI50 [44]: 17.4 µM | TGI [44]: 33.9 µM | GI50 [45]: > 100 µM | TGI [45]: > 100 µM | GI50 [46]: 35.5 µM | TGI [46]: > 100 µM | GI50 [47]: 17.4 µM | TGI [47]: 60.9 µM | GI50 [48]: 19.2 µM | TGI [48]: 52.7 µM | GI50 [49]: 51.8 µM | TGI [49]: > 100 µM | GI50 [50]: 18.4 µM | TGI [50]: 49.2 µM | GI50 [51]: 14.7 µM | TGI [51]: 32.2 µM | GI50 [52]: 24.8 µM | TGI [52]: 66.3 µM | GI50 [53]: 35.3 µM | TGI [53]: > 100 µM | GI50 [54]: 18.6 µM | TGI [54]: 39.9 µM | GI50 [55]: 17.8 µM | TGI [55]: 39.1 µM | GI50 [56]: 16 µM | TGI [56]: 32.7 µM | GI50 [57]: 41.8 µM | TGI [57]: > 100 µM | GI50 [58]: 81.4 µM | TGI [58]: > 100 µM
